# Calls of active or inactive are those of the source.
# Assays:
# [1] = target: T1, Zinc finger protein mex-5 (Caenorhabditis elegans, UniProt Q9XUB2); assay: potency of MEX-5 RNA-binding blockers – biochemical, C. elegans, fluorescence polarization, dose response (AID 1960)
# T1 sequence (Q9XUB2 whole entry): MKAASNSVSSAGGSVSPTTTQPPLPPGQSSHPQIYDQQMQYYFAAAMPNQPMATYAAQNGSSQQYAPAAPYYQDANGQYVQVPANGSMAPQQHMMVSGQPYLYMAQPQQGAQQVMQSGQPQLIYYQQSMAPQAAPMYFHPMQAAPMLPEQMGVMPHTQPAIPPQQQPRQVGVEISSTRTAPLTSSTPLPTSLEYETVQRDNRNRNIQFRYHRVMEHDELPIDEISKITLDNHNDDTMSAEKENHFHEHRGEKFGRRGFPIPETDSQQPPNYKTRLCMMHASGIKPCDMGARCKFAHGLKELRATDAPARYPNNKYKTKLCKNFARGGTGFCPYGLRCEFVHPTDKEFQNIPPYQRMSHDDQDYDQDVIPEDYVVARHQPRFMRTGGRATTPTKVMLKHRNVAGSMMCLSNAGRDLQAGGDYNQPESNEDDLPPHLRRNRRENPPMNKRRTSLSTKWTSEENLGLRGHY
# [2] = target: T2, Estrogen receptor (Homo sapiens, UniProt P03372);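 further: potency for inhibiting coactivator peptide recruitment to the receptor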
# T2 sequence (P03372 whole entry): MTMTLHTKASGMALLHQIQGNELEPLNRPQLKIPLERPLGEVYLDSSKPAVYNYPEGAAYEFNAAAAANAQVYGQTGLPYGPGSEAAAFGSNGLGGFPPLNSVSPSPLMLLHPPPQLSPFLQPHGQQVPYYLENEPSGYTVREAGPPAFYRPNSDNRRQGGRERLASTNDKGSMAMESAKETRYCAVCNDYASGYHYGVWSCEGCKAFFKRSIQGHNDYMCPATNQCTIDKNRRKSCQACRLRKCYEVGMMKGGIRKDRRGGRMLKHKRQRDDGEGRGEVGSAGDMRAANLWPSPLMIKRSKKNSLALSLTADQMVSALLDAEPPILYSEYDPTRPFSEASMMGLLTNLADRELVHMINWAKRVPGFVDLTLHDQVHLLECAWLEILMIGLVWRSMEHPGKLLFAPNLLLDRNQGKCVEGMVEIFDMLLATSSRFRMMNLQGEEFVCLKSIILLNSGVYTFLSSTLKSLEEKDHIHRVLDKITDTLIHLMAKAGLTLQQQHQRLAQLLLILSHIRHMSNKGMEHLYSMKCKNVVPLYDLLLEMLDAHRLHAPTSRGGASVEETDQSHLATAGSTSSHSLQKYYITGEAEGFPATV
# [3] = target: T3, Polyadenylate-binding protein 1 (Homo sapiens, UniProt P11940); assay: MLLE binding blockers, Cy5 peptide tracer – biochemical, fluorescence polarization, Cy5-PAM2 peptide, secondary, miRNA deadenylation inhibitor project, dose response (AID 602260); assay type: functional; details: read-out: IC50_Mean
# [4] = target: T4, RNA-binding protein pos-1 (Caenorhabditis elegans, UniProt G5EF15); assay: disruptors of C. elegans POS-1 RNA interaction – biochemical, fluorescence polarization, dose response (AID 1964);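 further: purified POS-1 fused to maltose binding protein made in E. coli; potency of compounds blocking POS-1 binding to fluorescent RNA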
# T4 sequence (G5EF15 whole entry): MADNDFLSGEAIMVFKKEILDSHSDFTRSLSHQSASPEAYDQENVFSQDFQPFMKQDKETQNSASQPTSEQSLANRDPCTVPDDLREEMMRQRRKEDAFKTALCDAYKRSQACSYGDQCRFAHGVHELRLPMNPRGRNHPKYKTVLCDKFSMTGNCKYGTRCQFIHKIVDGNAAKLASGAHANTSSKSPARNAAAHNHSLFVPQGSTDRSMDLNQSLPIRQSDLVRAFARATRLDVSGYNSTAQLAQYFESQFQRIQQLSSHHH
# [5] = target: T3, Polyadenylate-binding protein 1; assay: MLLE domain peptide-binding blockers, IC50 – biochemical, fluorescence polarization, FITC-PAM2 peptide, dose response (AID 602259); assay type: functional; details: read-out: IC50_Mean
# [6] = Luminescence Cell-Based Dose Response HTS to Identify Activators of Luciferase Translation or Activity in H4 […] Cells. [Related pubchem assays: 1829 (Project Summary), 1814 (Primary HTS)]; assay type: functional
# [7] = tested on: H4; assay: Luminescence Cell-Based Dose Response HTS to Identify Activators of 5'UTR Stem-Loop Driven Prion Protein mRNA Translation in H4 Neuroglioblastoma Cells. [Related pubchem assays: 1829 (Project Summary), 1814 (Primary HTS)]; assay type: functional; details: Homo sapiens
# [8] = Luminescence Cell-Based Dose Confirmation HTS to Identify Activators of 5'UTR Stem-Loop Driven Alpha-Synuclein mRNA Translation in H4 Neuroglioblastoma Cells. [Related pubchem assays: 1829 (Project Summary), 1814 (Primary HTS)]; assay type: functional
# [9] = target: Glyceraldehyde-3-phosphate dehydrogenase (Homo sapiens, UniProt P04406)
# [10] = cells; assay type: functional
# [11] = target: Genome polyprotein (dengue virus type 2, UniProt P29990); assay: flavivirus cap methylation enzyme inhibition – biochemical, confirmation dose response, primary screen (AID 588689); assay type: functional
# [12] = microbe, parasite or virus in culture; assay type: functional; details: Mycobacterium tuberculosis
# [13] = THP-1 cell cytotoxicity, dose response, cytotoxicity control for non-replicating M. tuberculosis project (AID 489025); assay type: functional
# [14] = Vero E6 cell cytotoxicity, dose response, cytotoxicity control for non-replicating M. tuberculosis project, secondary assay (AID 492998); assay type: functional, VeroE6; details: Vero C1008
# [15] = tested on: Streptococcus sp. 'group A'; assay: Streptococcus pyogenes SK(-)GAS viability under kanamycin – luminescence, BacTiterGlo, confirmation, counter-screen for streptokinase expression inhibitor project, dose response (AID 1900); assay type: functional, organism-based
# [16] = tested on: Streptococcus; assay: GAS UMAA2166 growth inhibition – luminescence, BacTiterGlo, counter-screen for streptokinase expression inhibitor project, dose response (AID 1915); assay type: functional, organism-based;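 further: potency for reduction of bacterial viability or growth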
# [17] = target: T5, Streptokinase A (Streptococcus pyogenes serotype M1, UniProt P10520); assay: viability-normalized secreted streptokinase activity reduction – plasminogen activation absorbance, OD405, dose response (AID 1914); assay type: functional, Streptococcus pyogenes M1 GAS;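 further: secreted streptokinase activity via plasminogen activation per viability signal from cell pellet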
# T5 sequence (P10520 whole entry): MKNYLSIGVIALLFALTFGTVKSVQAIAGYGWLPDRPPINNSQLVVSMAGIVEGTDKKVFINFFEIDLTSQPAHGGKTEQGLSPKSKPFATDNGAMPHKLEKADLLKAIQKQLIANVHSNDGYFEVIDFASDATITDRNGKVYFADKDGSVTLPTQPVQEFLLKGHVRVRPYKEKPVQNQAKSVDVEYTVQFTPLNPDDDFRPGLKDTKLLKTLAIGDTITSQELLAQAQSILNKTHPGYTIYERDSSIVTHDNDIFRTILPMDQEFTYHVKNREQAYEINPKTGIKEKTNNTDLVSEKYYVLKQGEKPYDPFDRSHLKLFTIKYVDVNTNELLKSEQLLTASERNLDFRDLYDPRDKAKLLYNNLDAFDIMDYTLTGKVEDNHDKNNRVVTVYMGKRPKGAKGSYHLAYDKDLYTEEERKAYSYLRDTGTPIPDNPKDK
# [18] = target: Large T antigen (Simian virus 40, UniProt P03070); assay type: functional, Betapolyomavirus macacae;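 further: Confirmatory-stage PubChem screen for compounds that inhibit SV40 T antigen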
# [19] = tested on: SN12K1; assay: cells; assay type: functional; details: Homo sapiens
# [20] = OVCAR-3 cell viability loss – plate reader, dry powder samples, PAX8 inhibitor project, dose response (AID 743044); assay type: functional, cell-based
# [21] = target: Paired box protein Pax-8 (Homo sapiens, UniProt Q06710); assay: PAX8 transcriptional activity inhibition in RMG-I – RMG-I cells, luciferase, cherry-pick, dose response (AID 687027); assay type: functional, cell-based;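 further: luciferase reporter driven by Pax8 target thyroperoxidase promoter measured by SteadyGlo luminescence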
# [22] = target: FAD-linked sulfhydryl oxidase ALR (Homo sapiens, UniProt P55789); assay: ALR-catalysed DTT oxidation blockers – biochemical, H2O2 detection, luminescence, cherry-pick, dose response (AID 493248)
# [23] = P. falciparum Dd2 growth inhibitors, dose response, SYBR Green, cherry-picked samples (AID 1159567); assay type: functional, cell-based
# Chain of Genome polyprotein (P29990 2492-3391 limits assumed): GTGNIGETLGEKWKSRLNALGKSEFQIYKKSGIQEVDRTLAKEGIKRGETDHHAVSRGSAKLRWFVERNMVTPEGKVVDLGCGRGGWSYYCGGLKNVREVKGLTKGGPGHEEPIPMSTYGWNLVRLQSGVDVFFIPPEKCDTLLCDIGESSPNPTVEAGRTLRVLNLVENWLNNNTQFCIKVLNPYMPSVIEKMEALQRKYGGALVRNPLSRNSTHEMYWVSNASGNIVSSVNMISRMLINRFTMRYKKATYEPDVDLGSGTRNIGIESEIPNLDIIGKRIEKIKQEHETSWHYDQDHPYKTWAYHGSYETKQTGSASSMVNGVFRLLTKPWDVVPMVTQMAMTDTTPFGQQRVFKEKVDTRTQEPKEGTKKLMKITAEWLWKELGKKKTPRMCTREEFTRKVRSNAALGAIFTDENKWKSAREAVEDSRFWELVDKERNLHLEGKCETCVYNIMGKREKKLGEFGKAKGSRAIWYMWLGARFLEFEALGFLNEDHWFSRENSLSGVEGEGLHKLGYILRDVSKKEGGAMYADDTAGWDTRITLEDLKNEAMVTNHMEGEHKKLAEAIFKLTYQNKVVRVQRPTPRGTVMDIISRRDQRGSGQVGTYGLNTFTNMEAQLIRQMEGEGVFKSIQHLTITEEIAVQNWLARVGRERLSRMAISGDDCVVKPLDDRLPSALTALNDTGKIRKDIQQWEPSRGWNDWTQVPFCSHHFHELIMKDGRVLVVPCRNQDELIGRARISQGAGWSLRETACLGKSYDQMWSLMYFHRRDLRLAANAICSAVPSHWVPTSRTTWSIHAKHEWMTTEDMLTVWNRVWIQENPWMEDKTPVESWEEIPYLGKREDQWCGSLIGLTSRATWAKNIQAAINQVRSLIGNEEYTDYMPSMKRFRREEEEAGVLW
# Chain of Large T antigen (P03070 whole entry): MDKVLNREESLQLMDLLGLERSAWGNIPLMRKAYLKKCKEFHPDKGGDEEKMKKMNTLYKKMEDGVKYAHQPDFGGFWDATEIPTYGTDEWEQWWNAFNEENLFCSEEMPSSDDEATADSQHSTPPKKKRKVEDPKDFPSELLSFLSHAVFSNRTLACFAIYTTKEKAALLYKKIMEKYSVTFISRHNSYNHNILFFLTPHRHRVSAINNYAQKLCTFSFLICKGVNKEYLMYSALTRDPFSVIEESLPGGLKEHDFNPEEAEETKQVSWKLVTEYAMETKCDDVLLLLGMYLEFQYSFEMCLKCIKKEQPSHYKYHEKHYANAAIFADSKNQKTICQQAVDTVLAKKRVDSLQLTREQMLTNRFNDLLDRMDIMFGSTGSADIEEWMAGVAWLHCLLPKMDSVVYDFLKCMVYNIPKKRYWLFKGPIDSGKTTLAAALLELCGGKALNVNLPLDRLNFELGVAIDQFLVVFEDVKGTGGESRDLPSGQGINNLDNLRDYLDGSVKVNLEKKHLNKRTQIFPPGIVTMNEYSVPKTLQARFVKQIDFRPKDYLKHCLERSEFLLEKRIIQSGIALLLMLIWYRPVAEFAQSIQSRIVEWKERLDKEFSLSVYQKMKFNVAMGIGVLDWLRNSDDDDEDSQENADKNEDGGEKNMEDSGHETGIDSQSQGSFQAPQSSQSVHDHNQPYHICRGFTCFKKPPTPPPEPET
# T3 sequence (P11940 whole entry, the tested form may be a part): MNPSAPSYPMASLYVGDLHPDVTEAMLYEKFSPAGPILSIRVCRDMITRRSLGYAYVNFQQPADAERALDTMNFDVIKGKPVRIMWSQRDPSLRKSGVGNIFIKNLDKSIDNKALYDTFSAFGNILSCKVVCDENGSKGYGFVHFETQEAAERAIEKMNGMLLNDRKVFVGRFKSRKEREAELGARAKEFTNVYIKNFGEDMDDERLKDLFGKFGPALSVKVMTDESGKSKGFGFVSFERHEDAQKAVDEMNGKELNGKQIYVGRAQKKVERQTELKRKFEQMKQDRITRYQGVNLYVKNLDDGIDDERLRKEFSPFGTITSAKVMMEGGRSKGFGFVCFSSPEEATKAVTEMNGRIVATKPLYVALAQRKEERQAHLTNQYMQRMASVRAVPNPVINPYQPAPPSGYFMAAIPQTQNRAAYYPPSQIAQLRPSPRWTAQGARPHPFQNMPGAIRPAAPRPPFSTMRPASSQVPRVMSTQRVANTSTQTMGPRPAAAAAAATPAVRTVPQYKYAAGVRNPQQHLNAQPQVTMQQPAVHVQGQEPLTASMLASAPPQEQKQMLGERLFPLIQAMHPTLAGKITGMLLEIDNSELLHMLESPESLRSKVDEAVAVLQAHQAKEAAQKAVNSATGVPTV
# Chain of Glyceraldehyde-3-phosphate dehydrogenase (P04406 whole entry): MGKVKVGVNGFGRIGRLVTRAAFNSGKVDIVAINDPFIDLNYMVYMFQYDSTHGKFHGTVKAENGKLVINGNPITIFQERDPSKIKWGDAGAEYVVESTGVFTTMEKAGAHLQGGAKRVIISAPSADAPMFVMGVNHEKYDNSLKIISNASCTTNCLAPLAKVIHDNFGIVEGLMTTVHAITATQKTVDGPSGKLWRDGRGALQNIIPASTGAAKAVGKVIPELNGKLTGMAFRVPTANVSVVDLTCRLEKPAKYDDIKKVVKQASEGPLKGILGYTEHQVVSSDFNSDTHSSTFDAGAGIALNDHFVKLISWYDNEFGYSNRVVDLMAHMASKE
# Chain of Paired box protein Pax-8 (Q06710 whole entry): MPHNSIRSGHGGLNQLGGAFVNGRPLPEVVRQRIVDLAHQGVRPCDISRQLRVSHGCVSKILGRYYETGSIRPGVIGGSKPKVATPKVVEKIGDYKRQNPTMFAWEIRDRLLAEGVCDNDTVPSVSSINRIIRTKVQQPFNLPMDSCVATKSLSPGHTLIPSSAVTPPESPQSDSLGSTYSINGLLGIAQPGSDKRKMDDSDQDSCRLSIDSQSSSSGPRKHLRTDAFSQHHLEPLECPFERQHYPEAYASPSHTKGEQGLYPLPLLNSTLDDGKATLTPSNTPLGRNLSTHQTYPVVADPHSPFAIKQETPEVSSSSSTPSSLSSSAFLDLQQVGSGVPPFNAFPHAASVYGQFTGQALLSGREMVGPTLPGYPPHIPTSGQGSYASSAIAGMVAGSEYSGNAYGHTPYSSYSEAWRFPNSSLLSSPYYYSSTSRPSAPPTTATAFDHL
# Chain of FAD-linked sulfhydryl oxidase ALR (P55789 whole entry): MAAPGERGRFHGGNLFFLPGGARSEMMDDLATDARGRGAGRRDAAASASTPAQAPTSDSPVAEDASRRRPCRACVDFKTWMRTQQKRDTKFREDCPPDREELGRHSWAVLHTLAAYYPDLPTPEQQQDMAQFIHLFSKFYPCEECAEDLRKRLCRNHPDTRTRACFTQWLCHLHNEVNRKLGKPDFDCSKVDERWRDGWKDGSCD
structure (smiles),measurement,setting,value
Fc1ccc(NCc2cccnc2)cc1F,EC50,[1],11.2 µM (active)
same,IC50,[2],> 50 µM (not active)
same,IC50,[3],> 66 µM (inactive)
same,EC50,[4],15.4 µM (active)
same,IC50,[5],49.1 µM (inactive)
O=C(COn1nnc2ccccc21)NCC1CCCCC1,EC50,[6],68.8 µM (active)
same,EC50,[7],31.9 µM (inconclusive)
same,EC50,[8],5.83 µM (active)
COc1cccc(N2C(=O)C(Cl)=C(N3CCN(c4ncccn4)CC3)C2=O)c1,IC50,[9],> 50 µM (inconclusive)
CC12CN3CC(C)(CN(C1)C3c1ccc([N+](=O)[O-])o1)C2 (stereo not drawn),IC50,[10],11.1 µM (active)
COc1ccccc1-c1cc(C(=O)Nc2sc3c(c2C#N)CCC(C)C3)c2ccccc2n1 (stereo not drawn),IC50,[11],97.8 µM (active)
Cn1cnc([N+](=O)[O-])c1Sc1ccc(Br)cc1,CC50,[12],32.4 µM (active)
same,CC50,[13],34.4 µM (active)
same,CC50,[14],> 20 µM (active)
same,IC50,[10],11.5 µM (active)
CSCCC1NC(=O)NC1=O (stereo not drawn),IC50,[2],> 50 µM (not active)
COc1cc2cc(C(c3nnnn3C3CCCC3)N3CCc4ccccc43)c(=O)[nH]c2cc1OC (stereo not drawn),IC50,[2],21.9 µM (active)
Cc1cc(O)nc(-n2nc(C)cc2C)n1,CC50,[13],> 40 µM (active)
same,CC50,[14],> 20 µM (active)
same,IC50,[10],3.82 µM (active)
COc1ccc2cc(C(=O)C3CCCN(Cc4cccc(C)n4)C3)ccc2c1 (stereo not drawn),CC50,[13],> 40 µM (active)
same,EC50,[15],11.1 µM (active)
same,EC50,[16],> 150 µM (not active)
same,EC50,[17],> 150 µM (not active)
same,IC50,[10],3 µM (active)
C=CCOc1c(Br)cc(/C=C2/C(=O)ON=C2C)cc1OC,IC50,[11],> 100 µM (active)
Cc1ccc(CCC(=O)Nc2cc(Cl)ccc2Cl)o1,IC50,[10],42.8 µM (active)
Cc1cccn2c(CN(C)CCC3CCCCO3)c(C(=O)N3CCCCC3)nc12 (stereo not drawn),EC50,[6],> 120 µM (not active)
same,EC50,[7],> 120 µM (not active)
same,EC50,[8],19.9 µM (active)
CC1(C)CC(=O)C(C(c2ccc(Br)cc2)C2C(=O)CC(C)(C)CC2=O)C(=O)C1,IC50,[11],79.3 µM (active)
O=C(O)c1cc(S(=O)(=O)O)cc(Nc2c3ccccc3nc3ccccc23)c1O,IC50,[18],20.2 µM (active)
COc1ccc(N2CCN(C3=C(Cl)C(=O)N(c4cccc(C(F)(F)F)c4)C3=O)CC2)cc1,IC50,[9],> 50 µM (inconclusive)
Cn1c(=O)c2c(nc(NCC3CCCC(CN)C3)n2Cc2ccc(Cl)cc2Cl)n(C)c1=O (stereo not drawn),EC50,[6],> 120 µM (not active)
same,EC50,[7],> 120 µM (not active)
same,EC50,[8],> 120 µM (not active)
O=C(c1ccc(-c2ccc([N+](=O)[O-])cc2)o1)N1CCCCCCC1,CC50,[13],9 µM (active)
same,CC50,[14],9.37 µM (active)
same,IC50,[10],12.7 µM (active)
COC(=O)C1=C(O)/C(=C\c2ccc(CNC(=O)C(=O)Nc3ccc(C)c(C)c3)o2)N=C1C,IC50,[2],19.6 µM (active)
O=[N+]([O-])c1ccc(Sc2n[nH]c(-c3ccccc3)n2)nc1,EC50,[6],93.9 µM (active)
same,EC50,[7],> 120 µM (not active)
same,EC50,[8],5.81 µM (active)
Cc1ccc(NC(=O)C2OCCc3ccccc32)cc1 (stereo not drawn),EC50,[6],12 µM (active)
same,EC50,[7],31.4 µM (active)
same,EC50,[8],14.7 µM (active)
CCOC(=O)c1ccsc1NC(=O)CCS(=O)(=O)c1ccccc1,CC50,[13],34.5 µM (active)
same,CC50,[14],> 20 µM (active)
CCN(CC)c1ccc(NC(=O)c2ccccc2F)cc1,IC50,[18],18.8 µM (active)
COc1ccc2nc(NC3=NCCC3)sc2c1,EC50,[6],22.1 µM (active)
same,EC50,[7],8.52 µM (active)
same,EC50,[8],37.7 µM (active)
CN(C)CCNC(=O)c1cc([N+](=O)[O-])cc2ccc(-c3ccccc3)nc12,GI50,[19],3.04 µM (inactive)
O=C(C[C@@H]1CC[C@@H]2[C@H](COC[C@@H](O)CN2S(=O)(=O)c2cccc(Cl)c2)O1)Nc1ccc(-c2ccccc2)cc1,AC50,[20],18.9 µM (active)
same,AC50,[21],9.62 µM (active)
Cc1ccc(S(=O)(=O)N2CCN(CC(=O)N/N=C\c3ccc(O)c(O)c3)CC2)cc1,IC50,[18],9.98 µM (active)
same,AC50,[22],2.26 µM (active)
COC(=O)c1ccc(/N=C/c2c(-c3ccccc3)n[nH]c2O)cc1,EC50,[6],> 120 µM (not active)
same,EC50,[7],> 120 µM (not active)
same,EC50,[8],> 120 µM (not active)
COc1cc(/C=c2\sc3nc(-c4ccncc4)nn3c2=O)ccc1OC(C)=O,IC50,[2],31.7 µM (not active)
Cc1ccccc1S(=O)(=O)N(C)C[C@H]1OCc2ccccc2-c2ccccc2C(=O)N([C@@H](C)CO)C[C@H]1C,AC50,[23],20.9 µM (active)
N#Cc1cccc(-c2ccc3c(c2)[C@H]2[C@H](CCN2C(=O)c2ccncc2)[C@H](CO)N3)c1,AC50,[23],7.86 µM (active)

# From ChEMBL document CHEMBL1201862, “PubChem BioAssay data set” (2004)
